One data set relates to Hdh^CAG/+ mice. The data set is described as follows: Post-mortem synapse density (adjacent PSD95 and Vglut-1 spots) after 28 days of treatment. In kind it is in vivo, mouse. The source says:
We note that there is a significant reduction in this number of adjacent spots in untreated Hdh^CAG/+ mice.

For a further data set, the system named is Hdh^CAG140/+ mice. The data set can be described thus: Open Field test. Type of data set: in vivo, mouse. To be noted: 0.3 mg/kg/day subcutaneous infusion. The procedure:
Mice littermates were grouped into mixed treatment groups. Males and females were 6 months of age at the beginning of the treatment. For each specific test, all experimental groups were tested on the same day, during the light phase and between Days 16 and 28 of treatment. Prior to testing, mice were acclimatized to the test room for a period of 30 minutes. Treatments were randomly assigned and behavioral tests were performed 12 days before the end of the delivery of the treatment. […] Mice were excluded from analysis if their performance was calculated as a significant outlier by the Grubb test. One mouse was excluded based on these criteria. Mouse weights were measured prior to the start of treatment and until the end of testing.
Spontaneous locomotion was measured as the total distance traveled and general anxiety as the number of entries into the internal area. The Open Field test was conducted in a opaque Plexiglas square chamber (50×50 cm) and the internal chamber was defined with a quadrangular shape of 12.50×12.50 cm. The mice were filmed for 60 minutes. The distance traveled and the number of entries into the internal chamber per 5-minute interval were measured using ViewPoint tracking software.

Data set [1] concerns mouse cortical neuronal cells. The data set can be described thus: MTT toxicity assay. In kind it is cell-based. The procedure:
Toxicity was assessed using the tetrazolium salt MTT assay. The cortical culture was treated every day as previously described. After treatment, a solution of MTT (Life M6494) was added to the culture medium at 1.2 mM and incubated for 3 hours. The reaction was terminated by adding the solvent solution (4 mM HCl, 0.1% NP40 in isopropanol). The absorbance value was measured at 595 and 690 nm.
In general terms: Tetrazolium dyes change colour on reduction, which living cells bring about.

In another data set the test system is ERK phosphorylation. The data set can be described thus: Postsynaptic signaling: phosphoERK immunopositive striatal neurons after glycine/strychnine stimulation. The note with it: Hdh^CAG/+ neurons, 1 μM daily; glycine/strychnine 15 minutes. Type of data set: cell-based, mouse.
Data set [2] has as its system cortical neurons from WT and Hdh^CAG/+ mice. The data set can be described thus: BDNF-mCherry axonal transport in corticostriatal network on microfluidic device. Type of data set: cell-based, mouse. The procedure:
Referring to FIG. 3A, the inventors have reproduced the corticostriatal network in vitro on a microfluidic device consisting of two neuronal chambers that are connected via microchannels. Experiments are performed over a period of time ranging from 2 to 12 days in vitro (Days in vitro), i.e. DIV2 to DIV12, and a fixation/acquisition at DIV12.
For striatal StHdh cells, acute treatment was performed at 10 μM for 1 hour before and during the acquisition time. For neurons within the microchambers, treatments were started at DIV2 until DIV12 every day at 1 μM in each compartment of the microfluidic device.
The inventors then investigated whether ML-348 is able to restore dysfunctions of the corticostriatal network in Huntington's disease. Indeed, corticostriatal circuit is particularly altered in Huntington's disease, which manifests itself by a dysfunction and a degeneration of both the striatal neurons and their corticostriatal afferences. They developed a microfluidic-based approach that enables the reconstruction of a time- and space-controlled neuronal network compatible with fast spinning confocal videomicroscopy. This system uses a silicon polymer-based microfluidic device composed of two fluidically-isolated neuronal chambers that are connected via a set of thin microchannels through which neurites can grow and contact each other in an intermediate synaptic compartment. Using primary neuron cultures, they reconstituted a corticostriatal network in which cortical neurons project to striatal target neurons through oriented axodendritic connections (FIG. 3A). These devices are compatible with drug treatment and therefore can be used to test pharmacological agents in vitro on this functional circuit.
Cortical neurons from WT and Hdh^CAG/+ mice were infected with BDNF-mCherry lentivirus and acquisitions were performed at Day 12 in the distal part of the long microchannels to analyze axonal transport of BDNF (FIG. 3B). As expected, defects in axonal transport in HD (Huntington's disease) neurons were identified for both the anterograde and retrograde transport velocities, and also in the number of vesicles travelling along the microtubules (FIG. 3C-3E). These effects lead to a reduction of the linear net flux with no impact one the directionality of the vesicles (FIGS. 3F and 3G).

The mark [3] stands for this setting: Hdh^CAG/+ network, 1 μM daily DIV2 to DIV12.

One molecule from US12551479B2, “Acyl-protein thioesterase inhibitor for the treatment and/or prevention of Huntington's disease” (UNIVERSITÉ GRENOBLE ALPES, priority 2019, dated 2026) can be followed below.

Method for ERK phosphorylation: They used ERK phosphorylation as the readout of the postsynaptic signaling. […] The inventors stimulated cortical neurons for 15 minutes with glycine/strychnine and quantified the percentage of striatal neurons immunopositive for phosphoERK (FIG. 3J).

For the molecule `O=C(CN1CCN(C(=O)c2ccco2)CC1)Nc1cc(C(F)(F)F)ccc1Cl` [ML-348], in the data set on Hdh^CAG/+ mice, the “synaptic density, number of PSD95 and Vglut-1 adjacent dots per 100 μm^2” value was “restores synaptic density to a level approximately equal to that of untreated wild-type mice”. Further, the “total distance traveled over 60 minutes (spontaneous locomotion)” value in the data set with Hdh^CAG140/+ mice is “no effect”. Besides, in the data set on Hdh^CAG140/+ mice (wild-type and Hdh^CAG/+ mice), the “number of entries into the central area over 60 minutes” value was “no significant effect”. Moreover, in data set [1] (100 nM, 1 μM or 10 μM), the “cell viability (MTT)” value was “no effect”. In data set [1] (1 μM, for 12 days), the “toxicity (MTT)” value is “no toxicity”. In addition, the “toxicity (MTT)” value in data set [1] (100 μM, over 48 hours) is recorded as “toxic”. Besides, in data set [1] (wild-type cortical cultures, 1 μM for 10 days), the “toxicity (MTT)” value was “no toxicity”. The “percentage of immunopositive phosphoERK cells in the postsynaptic space” value in the data set on ERK phosphorylation is recorded as “restore postsynaptic signaling to values encountered in wild-type neurons”. Besides, in data set [2] (setting [3]), the “anterograde and retrograde transport velocities of BDNF-mCherry” value is reported as “restored to values approximately equal to those of the wild type”; the “linear net flow of BDNF-mCherry vesicles” value is reported as “restored to values approximately equal to those of the wild type”; the “number of anterograde and retrograde vesicles moving over 100 μm for 30 seconds” value is listed as “restored to values approximately equal to those of the wild type”. In addition, in data set [2] (WT neurons, 1 μM daily), the “effect on BDNF trafficking in WT neurons” value is reported as “inhibitory effect on BDNF trafficking”.
